In ChEMBL document CHEMBL3132795, “Synthesis, functional and binding profile of (R)-apomorphine based homobivalent ligands targeting the dopamine D2 receptor” (Medchemcomm, 2013):

Key:
D(2) dopamine receptor [1] = target: T1, D(2) dopamine receptor (Homo sapiens, UniProt P14416); test: Displacement of [3H]spiperone from human recombinant dopamine D2L receptor expressed in CHOFlpIn cells after 3 hrs by liquid scintillation counting; type: cell-based
D(2) dopamine receptor [2] = target: T1, D(2) dopamine receptor; test: Agonist activity at human recombinant dopamine D2L receptor expressed in CHOFlpIn cells assessed as ERK1/2 phosphorylation by alphascreen assay; type: cell-based

T1 sequence (P14416 whole entry): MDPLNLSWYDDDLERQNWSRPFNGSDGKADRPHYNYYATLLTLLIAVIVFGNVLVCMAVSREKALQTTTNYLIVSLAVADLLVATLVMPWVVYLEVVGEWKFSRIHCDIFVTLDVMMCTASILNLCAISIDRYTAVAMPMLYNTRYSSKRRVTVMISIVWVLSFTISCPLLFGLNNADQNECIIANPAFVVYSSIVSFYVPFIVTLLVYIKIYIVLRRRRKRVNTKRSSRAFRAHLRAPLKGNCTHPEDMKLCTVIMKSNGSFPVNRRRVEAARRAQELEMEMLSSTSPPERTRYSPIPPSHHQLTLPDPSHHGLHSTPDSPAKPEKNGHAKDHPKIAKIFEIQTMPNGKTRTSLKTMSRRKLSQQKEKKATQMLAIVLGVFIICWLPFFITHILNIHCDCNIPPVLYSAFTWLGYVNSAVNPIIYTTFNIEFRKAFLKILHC

SMILES | IC50 (D(2) dopamine receptor [1]) [nM] | EC50 (D(2) dopamine receptor [2]) [nM]
CN1CCc2cccc3c2[C@H]1Cc1ccc(OCCCNC(=O)CCCCCNC(=O)OC(C)(C)C)c(O)c1-3 | 6540 | 266
CN1CCc2cccc3c2[C@H]1Cc1ccc(OCCCNC(=O)CCCCCCCCCCCCCCCCC(=O)NCCCOc2ccc4c(c2O)-c2cccc5c2[C@@H](C4)N(C)CC5)c(O)c1-3 | 2680 | 385
CN1CCc2cccc3c2[C@H]1Cc1ccc(OCCCNC(=O)CCCCCCCCCCCCCCCCCCC(=O)NCCCOc2ccc4c(c2O)-c2cccc5c2[C@@H](C4)N(C)CC5)c(O)c1-3 | 1550 | 248
CN1CCc2cccc3c2[C@H]1Cc1ccc(OCCCNC(=O)CCCCCCC(=O)NCCCOc2ccc4c(c2O)-c2cccc5c2[C@@H](C4)N(C)CC5)c(O)c1-3 | 3600 | 419
CN1CCc2cccc3c2[C@H]1Cc1ccc(OCCCNC(=O)CCC(=O)NCCCOc2ccc4c(c2O)-c2cccc5c2[C@@H](C4)N(C)CC5)c(O)c1-3 | 4360 | 396

The next compounds have a lower EC50 (D(2) dopamine receptor [2]) than those just listed; values first:

IC50 (D(2) dopamine receptor [1]) [nM] | EC50 (D(2) dopamine receptor [2]) [nM] | SMILES
– | 224 | CN1CCc2cccc3c2[C@H]1Cc1ccc(OCCCNC(=O)CCCCCCCCCCCCC(=O)NCCCOc2ccc4c(c2O)-c2cccc5c2[C@@H](C4)N(C)CC5)c(O)c1-3
5320 | 149 | CN1CCc2cccc3c2[C@H]1Cc1ccc(OCCCNC(=O)CCCCC(=O)NCCCOc2ccc4c(c2O)-c2cccc5c2[C@@H](C4)N(C)CC5)c(O)c1-3
– | 132 | CC(=O)NCCCOc1ccc2c(c1O)-c1cccc3c1[C@@H](C2)N(C)CC3
183 | 110 | CN1CCc2cccc3c2[C@H]1Cc1ccc(OCCCNC(=O)CCCCCCCCCCC(=O)NCCCOc2ccc4c(c2O)-c2cccc5c2[C@@H](C4)N(C)CC5)c(O)c1-3
1350 | 79 | CN1CCc2cccc3c2[C@H]1Cc1ccc(OCCCNC(=O)CCCCCCCCC(=O)NCCCOc2ccc4c(c2O)-c2cccc5c2[C@@H](C4)N(C)CC5)c(O)c1-3
– | 10 | CN1CCc2cccc3c2[C@H]1Cc1ccc(OCCCN)c(O)c1-3
